Results as given in ChEMBL document CHEMBL1201862, “PubChem BioAssay data set” (2004).
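Results reflect a 48-hour exposure of cells in 96-well plates to compound at five concentrations. Here, GI50 denotes the concentration required for 50% inhibition of growth.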 Calls of active or inactive are those of the source. No stated cut-off is given here; in the data, active = GI50 up to about 1.1 µM and inactive = higher.

How the values were obtained:
Assay in all cases: NCI tumour cell line growth inhibition, 48 h
LOX IMVI = test system: LOX IMVI
DU-145 = test system: DU-145
SK-MEL-28 = test system: SK-MEL-28
786-0 = test system: 786-0
CAKI-1 = test system: CAKI-1
SNB-75 = test system: SNB-75
SF-539 = test system: SF-539
K562 = test system: K562
UO-31 = test system: UO-31
A549 = test system: A549
HOP-62 = test system: HOP-62
MDA-N = test system: MDA-N
HT-29 = test system: HT-29
UACC-62 = test system: UACC-62
RPMI-8226 = test system: RPMI-8226
SK-MEL-2 = test system: SK-MEL-2
BT-549 = test system: BT-549
NCI/ADR-RES = test system: NCI/ADR-RES
M14 = test system: M14
TK-10 = test system: TK-10

| Structure (SMILES) | GI50 (LOX IMVI) | GI50 (DU-145) | GI50 (SK-MEL-28) | GI50 (786-0) | GI50 (CAKI-1) | GI50 (SNB-75) | GI50 (SF-539) | GI50 (K562) | GI50 (UO-31) | GI50 (A549) | GI50 (HOP-62) | GI50 (MDA-N) | GI50 (HT-29) | GI50 (UACC-62) | GI50 (RPMI-8226) | GI50 (SK-MEL-2) | GI50 (BT-549) | GI50 (NCI/ADR-RES) | GI50 (M14) | GI50 (TK-10) |
| --- | --- | --- | --- | --- | --- | --- | --- | --- | --- | --- | --- | --- | --- | --- | --- | --- | --- | --- | --- | --- |
| COc1cccc2c3ccccc3c3nc[nH]c3c12 | 33.8 µM (inactive) | 46.9 µM (inactive) | 19.7 µM (inactive) | 18.1 µM (inactive) | 48.4 µM (inactive) | > 47.8 µM (inactive) | 18.2 µM (inactive) | 12.4 µM (inactive) | 41.7 µM (inactive) | 36.2 µM (inactive) | 54.3 µM (inactive) | 32.1 µM (inactive) | 31.6 µM (inactive) | 22.8 µM (inactive) | 21.9 µM (inactive) | 58.3 µM (inactive) | > 71.1 µM (inactive) | 46.3 µM (inactive) | 28.6 µM (inactive) | 26.1 µM (inactive) |
| CC(=O)NC1C(O)C(O)C(CO)OC1n1ncc(=O)[nH]c1=O (configuration not stated) | > 100 µM (inactive) | > 100 µM (inactive) | > 100 µM (inactive) | > 100 µM (inactive) | > 100 µM (inactive) | > 100 µM (inactive) | > 100 µM (inactive) | > 100 µM (inactive) | > 100 µM (inactive) | > 100 µM (inactive) | > 100 µM (inactive) | > 100 µM (inactive) | > 100 µM (inactive) | > 100 µM (inactive) | > 100 µM (inactive) | > 100 µM (inactive) | > 100 µM (inactive) | > 100 µM (inactive) | > 100 µM (inactive) | > 100 µM (inactive) |
| COc1ccc(C(=O)/C=C/c2cc(O)c(O)c(F)c2F)c(OC)c1 | 13.6 µM (inactive) | 23.9 µM (inactive) | 30 µM (inactive) | 8 µM (inactive) | 25.6 µM (inactive) | 22.4 µM (inactive) | 16.7 µM (inactive) | 17.9 µM (inactive) | 35.2 µM (inactive) | 16.1 µM (inactive) | 26.5 µM (inactive) | 12.7 µM (inactive) | 4.67 µM (inactive) | 15.1 µM (inactive) | 8.83 µM (inactive) | 14.4 µM (inactive) | 19.2 µM (inactive) | 10.1 µM (inactive) | 22.8 µM (inactive) | 22.5 µM (inactive) |
| COC(=O)C1SC(N(C)c2ccccc2)=NC12c1ccccc1Nc1ccccc12 (configuration not stated) | 19.1 µM (inactive) | 25.7 µM (inactive) | 19.2 µM (inactive) | 26.1 µM (inactive) | 23.8 µM (inactive) | 25.8 µM (inactive) | 18.4 µM (inactive) | 15.1 µM (inactive) | 22.5 µM (inactive) | 20.3 µM (inactive) | 33.8 µM (inactive) | 23.1 µM (inactive) | 19.3 µM (inactive) | 13.6 µM (inactive) | 3.08 µM (inactive) | 15.5 µM (inactive) | 15.9 µM (inactive) | 13.5 µM (inactive) | 19.5 µM (inactive) | 29.8 µM (inactive) |
| C1CN2CCNCCN(CCN1)CC2 | > 100 µM (inactive) | > 100 µM (inactive) | > 100 µM (inactive) | > 100 µM (inactive) | > 100 µM (inactive) | > 100 µM (inactive) | > 100 µM (inactive) | > 100 µM (inactive) | > 100 µM (inactive) | > 100 µM (inactive) | > 100 µM (inactive) | > 100 µM (inactive) | > 100 µM (inactive) | > 100 µM (inactive) | > 100 µM (inactive) | > 100 µM (inactive) | > 100 µM (inactive) | > 100 µM (inactive) | > 100 µM (inactive) | > 100 µM (inactive) |
| O=C(NNC(=S)Nc1ccccc1)c1ccccc1Nc1ccccc1C(=O)NNC(=S)Nc1ccccc1 | 12.9 µM (inactive) | 23.3 µM (inactive) | 33 µM (inactive) | 13.8 µM (inactive) | 48.2 µM (inactive) | 22.4 µM (inactive) | 24.1 µM (inactive) | 74 µM (inactive) | 17.7 µM (inactive) | 27.2 µM (inactive) | 21.7 µM (inactive) | 29.1 µM (inactive) | 28.5 µM (inactive) | 13.1 µM (inactive) | 18.6 µM (inactive) | 19.6 µM (inactive) | 17.4 µM (inactive) | 87.3 µM (inactive) | 19 µM (inactive) | 25.3 µM (inactive) |
| COC1CC(OC2C(C)OC(OC3C(C)OC(OC4C(C)OC(O[C@H]5CC[C@@]6(C)C(=CC[C@]7(O)[C@@H]6C[C@@H](O)[C@@]6(C)[C@]7(O)CC[C@@]6(O)C(C)=O)C5)CC4OC)CC3OC)CC2OC)OC(C)C1O (some centres not stated) | > 12.5 µM (inactive) | > 12.5 µM (inactive) | > 12.5 µM (inactive) | > 12.5 µM (inactive) | > 12.5 µM (inactive) | > 12.5 µM (inactive) | > 12.5 µM (inactive) | > 12.5 µM (inactive) | 12.4 µM (inactive) | > 12.5 µM (inactive) | > 12.5 µM (inactive) | > 12.5 µM (inactive) | > 12.5 µM (inactive) | > 12.5 µM (inactive) | > 12.5 µM (inactive) | > 12.5 µM (inactive) | > 12.5 µM (inactive) | > 12.5 µM (inactive) | > 12.5 µM (inactive) | > 12.5 µM (inactive) |
| Nc1c2ccccc2nc2ccc3c(=O)cc(-c4ccccc4)oc3c12 | 0.406 µM (active) | 1.75 µM (inactive) | 1.55 µM (inactive) | 0.436 µM (active) | 1.33 µM (inactive) | 1.76 µM (inactive) | 1.33 µM (inactive) | 0.272 µM (active) | 1.5 µM (inactive) | 1.4 µM (inactive) | 0.94 µM (active) | 0.815 µM (active) | 0.465 µM (active) | 1.6 µM (inactive) | 0.473 µM (active) | 1.96 µM (inactive) | 2.8 µM (inactive) | 1.35 µM (inactive) | 1.21 µM (inactive) | 2.07 µM (inactive) |
| Cc1cc(N(CC(C)Br)CC(C)Br)ccc1/N=N/c1ccccc1C(=O)O (configuration not stated) | 7.59 µM (inactive) | 7.67 µM (inactive) | 1.93 µM (inactive) | 2.77 µM (inactive) | 2.49 µM (inactive) | 2.43 µM (inactive) | 1.45 µM (inactive) | 1.03 µM (active) | 5.86 µM (inactive) | 3.04 µM (inactive) | 4.71 µM (inactive) | 4.23 µM (inactive) | 4.85 µM (inactive) | 1.52 µM (inactive) | 1.75 µM (inactive) | 2.93 µM (inactive) | 11.3 µM (inactive) | 15.2 µM (inactive) | 6.04 µM (inactive) | 11.7 µM (inactive) |
| COc1c(N2CCCCC2)c2c(=O)c3ccccc3oc2c2cc(C)oc12 | 14 µM (inactive) | 17.9 µM (inactive) | 25.4 µM (inactive) | 6.35 µM (inactive) | 14.1 µM (inactive) | 11.3 µM (inactive) | 35.9 µM (inactive) | 6.1 µM (inactive) | 11.3 µM (inactive) | 18.2 µM (inactive) | 9.91 µM (inactive) | 23.7 µM (inactive) | 3.87 µM (inactive) | 17.8 µM (inactive) | 5.94 µM (inactive) | 15.9 µM (inactive) | 21.5 µM (inactive) | 15.3 µM (inactive) | 14.8 µM (inactive) | 37.6 µM (inactive) |
| Cc1oc(N)c(S(=O)(=O)/C(C#N)=C/c2ccccc2[N+](=O)[O-])c1C | 14 µM (inactive) | 62.4 µM (inactive) | 24.2 µM (inactive) | 30.5 µM (inactive) | 22.6 µM (inactive) | 33.2 µM (inactive) | 25.5 µM (inactive) | 18.6 µM (inactive) | 16.4 µM (inactive) | 25.2 µM (inactive) | 31.1 µM (inactive) | 20.7 µM (inactive) | 19.2 µM (inactive) | 20.7 µM (inactive) | 27.9 µM (inactive) | 37.2 µM (inactive) | 17.5 µM (inactive) | 27.3 µM (inactive) | 18.5 µM (inactive) | 50.2 µM (inactive) |
| COc1ccccc1NC(=O)CC(=O)NN | > 100 µM (inactive) | > 100 µM (inactive) | > 100 µM (inactive) | > 100 µM (inactive) | > 100 µM (inactive) | > 100 µM (inactive) | > 100 µM (inactive) | > 100 µM (inactive) | > 100 µM (inactive) | > 100 µM (inactive) | > 100 µM (inactive) | > 100 µM (inactive) | > 100 µM (inactive) | > 100 µM (inactive) | > 100 µM (inactive) | > 100 µM (inactive) | > 100 µM (inactive) | 9.77 µM (inactive) |  | > 100 µM (inactive) |
| NC1CCC(N(CC(=O)O)CC(=O)O)C(N(CC(=O)O)CC(=O)O)C1 (configuration not stated) | > 100 µM (inactive) | > 100 µM (inactive) | > 100 µM (inactive) | > 10 µM (inactive) | > 100 µM (inactive) | > 100 µM (inactive) | > 100 µM (inactive) | > 100 µM (inactive) | > 100 µM (inactive) | > 100 µM (inactive) | > 100 µM (inactive) | > 100 µM (inactive) | > 100 µM (inactive) | > 100 µM (inactive) | > 100 µM (inactive) | > 100 µM (inactive) | > 100 µM (inactive) | > 100 µM (inactive) |  | > 100 µM (inactive) |
| COC(=O)NC1C(C)OC(OC2C/C=C(/C)C3C=CC4C(OC5CC(OC6CC(OC7CC(O)C(O)C(C)O7)C(OC7CC(O)C(OC)C(C)O7)C(C)O6)C(O)C(C)O5)C(C)CC(C)C4C3(C)C(=O)C3=C(O)C4(CC(C)C(CO)=CC4/C=C\2C)OC3=O)CC1(C)[N+](=O)[O-] (configuration not stated) | 3.23 µM (inactive) | 6.73 µM (inactive) | 8.34 µM (inactive) | 2.44 µM (inactive) | 16 µM (inactive) | 2.47 µM (inactive) | 17.8 µM (inactive) |  | 22.9 µM (inactive) | 5.04 µM (inactive) | 3.38 µM (inactive) | 14 µM (inactive) | 7.83 µM (inactive) | 4.14 µM (inactive) | 1.6 µM (inactive) | 11.6 µM (inactive) | 20.8 µM (inactive) | 38.7 µM (inactive) | 17.1 µM (inactive) | 16.6 µM (inactive) |
